The text below walks through data of ChEMBL document CHEMBL2417420, “Autotaxin inhibition: development and application of computational tools to identify site-selective lead compounds” (Bioorg Med Chem, 2013).

Usually IC50 stands for the concentration that gives 50% inhibition. What is called inhibition is the percentage by which the read-out fell short of the control. A word on the Ki: it is the equilibrium dissociation constant of an inhibitor or competing ligand from its target. A word on the EC50: it is the concentration giving half of the maximal effect.

In test [1] the target is T1, Autotaxin (Homo sapiens, UniProt Q13822). Description: Inhibition of C-terminal FLAG-tagged human recombinant autotaxin using synthetic substrate FS-3 measured every 2 mins by FRET assay.
Test [2] addresses T1, Autotaxin. Description: Inhibition of C-terminal FLAG-tagged human recombinant autotaxin using synthetic substrate FS-3 at 10 uM measured every 2 mins by FRET assay relative to control.
The test system of test [3] is A2058. Description: Reduction of autotaxin and lysophosphatidyl choline-induced cell migration in human A2058 cells at 30 uM after 4 to 48 hrs by monolayer scratch assay. It is filed as functional. Further details: scale not given: the % may be the effect or the level left.
The test system of test [4] is A2058. Description: Cytotoxicity against human A2058 cells assessed as reduction autotaxin-induced of cell proliferation at 30 uM after 24 hrs by MTS assay. It is filed as functional. Further details: scale not given: the % may be the effect or the level left.
Test [5] addresses T1, Autotaxin. Description: Inhibition of C-terminal FLAG-tagged human recombinant autotaxin using paranitrophenyl thymidine monophosphate as substrate at 10 uM measured every 2 mins by […] assay relative to control.
For test [6], the system named is A2058. The test is described as follows: Reduction of lysophosphatidyl choline-induced cell migration in human A2058 cells at 30 uM after 4 to 48 hrs by monolayer scratch assay. Further details: scale not given: the % may be the effect or the level left. It is filed as functional.
For test [7], the system named is A2058. The test is described as follows: Cytotoxicity against human A2058 cells assessed as reduction lysophosphatidyl choline and autotaxin-induced of cell proliferation at 30 uM after 24 hrs by MTS assay. It counts as functional. On the set-up: scale not given: the % may be the effect or the level left.
Test [8] relates to A2058. Description: Reduction of cell migration in human A2058 cells at 30 uM after 4 to 48 hrs by monolayer scratch assay. It is filed as functional. Further details: scale not given: the % may be the effect or the level left.
In test [9] the test system is A2058. The test is described as follows: Reduction of autotaxin-induced cell migration in human A2058 cells at 30 uM after 4 to 48 hrs by monolayer scratch assay. Further details: scale not given: the % may be the effect or the level left. It is filed as functional.
The subject of test [10] is A2058. The test is described as follows: Cytotoxicity against human A2058 cells assessed as reduction lysophosphatidic acid-induced of cell proliferation at 30 uM after 24 hrs by MTS assay. It counts as functional. Further details: scale not given: the % may be the effect or the level left.
Test [11] relates to A2058. Description: Reduction of lysophosphatidic acid-induced cell migration in human A2058 cells at 30 uM after 4 to 48 hrs by monolayer scratch assay. It counts as functional. On the set-up: scale not given: the % may be the effect or the level left.
For test [12], the target named is T1, Autotaxin. The test is described as follows: Competitive inhibition of C-terminal FLAG-tagged human recombinant autotaxin using synthetic substrate FS-3 by Michaelis-Menten equation analysis.
The test system of test [13] is A2058. The test is described as follows: Cytotoxicity against human A2058 cells assessed as reduction of cell number at 30 uM after 24 hrs by MTS assay. It is filed as functional. Further details: scale not given: the % may be the effect or the level left. For orientation: Tetrazolium assays rely on reduction of a dye to a coloured formazan, in cell work by metabolically active cells.

Test [14] deals with A2058. The test is described as follows: Cytotoxicity against human A2058 cells assessed as reduction lysophosphatidyl choline-induced of cell proliferation at 30 uM after 24 hrs by MTS assay. It counts as functional. Further details: scale not given: the % may be the effect or the level left.
For test [15], the target named is T1, Autotaxin. Description: Activation of C-terminal FLAG-tagged human recombinant autotaxin using paranitrophenyl thymidine monophosphate as substrate measured every 2 mins by […] assay.
The target of test [16] is T1, Autotaxin. The test is described as follows: Activation of C-terminal FLAG-tagged human recombinant autotaxin using paranitrophenyl thymidine monophosphate as substrate at 10 uM measured every 2 mins by […] assay.

The source made the active and inactive calls. No cut-off for these calls is given here.

Regarding `O=C(O)c1ccc(-c2ccc(/C=C3/SC(=O)N(Cc4ccc(F)cc4)C3=O)o2)cc1`, the IC50 on Autotaxin [1] worked out at 4400 nM. Besides, the inhibition at Autotaxin [2] turned out to be 68.8%.

For `CC(C)C1C(=O)Nc2cc(S(=O)(=O)NCc3ccccc3)ccc2N1C(=O)CN1CCCCC1` (stereo not given), the 50% inhibitory concentration (IC50) on Autotaxin [1] is 6200 nM. The inhibition on Autotaxin [2] is 62.3%.

Regarding `CC1CN(c2ccc(C(=O)N3CCCC3C(N)=O)cn2)CCC1C(=O)COc1cccc2ccccc12` (stereo not given), the Activity in the test with A2058 [3] is listed as 25%; in the test on A2058 [4], 36%; in the test on A2058 [6], 24%; in the test on A2058 [7], 27%; in the test with A2058 [8] it was 39%; in the test with A2058 [9] it was 34%. Also, the Activity in the test with A2058 [10] amounted to 44%; with A2058 [11], 30%; with A2058 [13], 49%; in the test on A2058 [14], 36%. Further, the inhibition stood at 10.6% at Autotaxin [5] and 64.7% at Autotaxin [2]. For the same compound, the IC50 at Autotaxin [1] worked out at 1000 nM. In addition, the Ki on Autotaxin [12] came to 1600 nM.

On to `CC(C)c1ccc(OCC(=O)N2CCN(c3ccc(C(=O)N4CCCC4C(N)=O)cn3)CC2C)cc1` (stereo not given), for which the Activity amounted to 16% in the test on A2058 [3], 35% in the test on A2058 [6], 43% with A2058 [8] and 19% in the test with A2058 [9]. Besides, the inhibition on Autotaxin [5] came out at 29.3%; at Autotaxin [2], 88.5%. In addition, the IC50 at Autotaxin [1] worked out at 1200 nM. Further, the Ki on Autotaxin [12] was found to be 1600 nM. The result with A2058 [13] was inactive.

Regarding `CCCc1ccc(S(=O)(=O)Oc2ccccc2-c2cc(CC)n(CCN3CCCCC3)n2)cc1`, the IC50 on Autotaxin [1] stood at 4900 nM. For the same compound, the inhibition on Autotaxin [2] was 61.5%.

Consider `CC(O)C(NC(=O)c1ccc(N2CCC(CCCC3CCN(C(=O)Cc4ccc(-c5ccccc5)cc4)CC3)CC2)nc1)C(N)=O` (stereo not given), for which the half-inhibitory concentration (IC50) at Autotaxin [1] was determined as 900 nM. Also, the inhibition on Autotaxin [2] was 85.3%. Besides, on Autotaxin [15], the half-maximal effective concentration (EC50) worked out at 4440 nM. For the same compound, at Autotaxin [12], the Ki worked out at 200 nM. In addition, in the test on A2058 [13], the result was Active.

Take `CC(C)Cc1ccc(C(C)C(=O)N2CCC(CCCC3CCN(c4ccc(C(=O)NC(C(N)=O)C(C)O)cn4)CC3)CC2)cc1` (stereo not given): at Autotaxin [1], the half-inhibitory concentration (IC50) stood at 800 nM. Besides, the inhibition at Autotaxin [2] is 87.3%. Besides, on Autotaxin [15], the EC50 came to 4310 nM. In addition, at Autotaxin [12], the inhibitory constant (Ki) is 800 nM. Also, the result in the test with A2058 [13] was Active.

Turning to `CC1CCC(C(C)C)C(OCC(=O)N2CCC(CCCC3CCN(c4ccc(C(=O)N5CCCC5C(N)=O)cc4)CC3)CC2)C1` (stereo not given), the IC50 at Autotaxin [1] came to 800 nM. For the same compound, the inhibition at Autotaxin [2] amounted to 90.5%. Further, the EC50 on Autotaxin [15] worked out at 2790 nM. In addition, the Ki on Autotaxin [12] was 100 nM. Moreover, the outcome with A2058 [13] was Active.

Consider `O=C(O)c1ccccc1-c1ccc(/C=C2/SC(=S)N(Cc3ccccc3)C2=O)o1`, for which, on Autotaxin [1], the IC50 was determined as 2400 nM. In addition, the inhibition at Autotaxin [2] worked out at 93.7%.

Consider `COc1cc(CCNC(=O)c2ccc3c(c2)nc(-c2cccc4ccccc24)n3CCc2ccc(OC)c(OC)c2)cc(OC)c1`, for which, at Autotaxin [1], the IC50 is 1100 nM. The inhibition at Autotaxin [2] worked out at 63.8%.

On to `CC(O)C(NC(=O)c1ccc(N2CCC(CCCC3CCN(C(=O)CCC(=O)c4ccccc4)CC3)CC2)nc1)C(N)=O` (stereo not given), for which the Activity stood at 38% in the test on A2058 [3]; 30% in the test with A2058 [4]; 28% in the test on A2058 [6]; 33% in the test on A2058 [9]; 27% in the test with A2058 [10]; 22% in the test on A2058 [11]. On Autotaxin [1], the IC50 is 900 nM. Moreover, the inhibition at Autotaxin [2] came to 87.4%. The inhibition constant (Ki) at Autotaxin [12] stood at 500 nM.

With `COc1cc(C2CC(=O)NC(SCC(=O)Nc3ccc(Br)cc3)=C2C#N)ccc1O` (stereo not given), the Activity is 60% with A2058 [3]; 59% in the test with A2058 [6]; 60% in the test on A2058 [8]; 61% in the test with A2058 [9]; 28% in the test on A2058 [10]; 57% in the test with A2058 [11]. For the same compound, at Autotaxin [1], the 50% inhibitory concentration (IC50) was determined as 3800 nM. The inhibition at Autotaxin [2] is 68.6%. Further, the Ki on Autotaxin [12] was determined as 9800 nM.

As for `O=C(O)c1cc(-c2ccc(/C=C3\S/C(=N\c4ccccc4)N(Cc4ccccc4)C3=O)o2)ccc1Cl`, the outcome at Autotaxin [16] was Active.

`CC(O)C(NC(=O)c1ccc(N2CCN(C(=O)Cc3cccc4ccccc34)CC2)nc1)C(N)=O` (stereo not given): on Autotaxin [16], the outcome was Active.

Regarding `COC(=O)C1C(=O)NC(SCC(=O)Nc2ccc(C)cc2Br)=C(C#N)C1c1ccc(OC)cc1` (stereo not given), the result at Autotaxin [16] was Active.

Turning to `Cc1cc(C)cc(CC(=O)N2CCC(CCCC3CCN(c4ccc(C(=O)NC(C(N)=O)C(C)O)cn4)CC3)CC2)c1` (stereo not given), the 50% inhibitory concentration (IC50) at Autotaxin [1] is 900 nM. In addition, the result in the test on A2058 [8] and in the test on A2058 [13] was inactive. For the same compound, the inhibition on Autotaxin [2] came to 83.2%. Besides, the inhibitory constant (Ki) at Autotaxin [12] was 17900 nM.

For the compound `O=C(Cn1c(=O)sc2cccc(Cl)c21)OCc1cccc(Oc2ccccc2)c1`, the result on Autotaxin [16] was Active.
